Measured values taken from patent publication US5463125A, “Phenyl alcohol amides having anticonvulsant activity” (priority 1993, dated 1995).
Like-named read-outs stand apart in the source and are kept apart here.

How the values were obtained:
[1] = 4-aminopyridine (4-AP) anticonvulsant test; format: in vivo, mice (male albino, NMR-1 strain); conditions: Mus musculus, ip, mice; 4-AP i.p.; abolition of tonic components
Protocol: (§1) Male albino mice (NMR-1 strain) weighing 28-32 gm were used in a mouse anticonvulsant and rotarod test. Each of the test compounds (n=0, 1 and 2) were dissolved in a 10% polyethylene glycol-400 saline solution and were administered intraperitoneally (i.p.). Convulsant agents were dissolved in saline solution, buffered with 15 mmol/l Tris-HCl, pH 7.4, except for bicuculline, which was first dissolved in 0.025N HCl, adjusting to pH 4 with a 0.15 mol/l citrate-phosphate buffer. The convulsant dose inducing seizures in 97% of mice (CD97) was determined and used in the pharmacological test. CD97 values obtained were: 85 for pentetrazol (PTZ), 15 for 4-aminopyridine (4-AP), 3.3 for bicuculline (BIC), 20 for thiosemicarbazide (TSC), and 2.0 for strychnine (STR) expressed as mg kg^-1. The time of peak drug effect was evaluated for each anticonvulsant before determining the dose-response curves. Convulsant agents were either injected subcutaneously (s.c. into the back of the neck (BIC, picrotoxin (PIC) and PTZ) or administered i.p. (4-AP, TSC and STR).
(§2) Abolition of the tonic components of the seizure was the end point, except for PTZ, where suppression of seizures of at least 5 seconds duration was considered the end point. […] The ED50, TD50 and 95% confidence intervals were calculated by the method of Litchfield and Wilcoxon. See Litchfield et al., J. Pharmacol. Exp. Ther. 96, 99 (1949).
(§3) (PTZ), 4aminopyridine (4AP), bicuculline (BIC), thiosemicarbazide (TSC),

Solubility = format: physicochemical
Protocol: The solid formed was separated by means of filtration and washed with cold benzene. This solid is the DL-HEPA that crystallizes from benzene. […]. […] Fusion point was 91°-92° C. Yield was 20%.
While still warm, the mixture was carefully neutralized with a 5% sulfuric acid solution using litmus paper. Once neutralized, the mixture was extracted with 50 ml volumes of ethyl ether. The ether was distilled in a rotating evaporator, and the white solid residue was the DL-HEPP that crystallizes with water. […] Its fusion point is 101°-102° C.

[2] = Pentetrazol (PTZ) anticonvulsant test; format: in vivo, mice (male albino, NMR-1 strain); conditions: Mus musculus, ip, 10 min, mice; PTZ s.c.; suppression of seizures of at least 5 s; for compound 1 PTZ given 10 min postdosing (footnote d)
Protocol: as §1, §2
^a) Seizures provoked by: maximal electroshock (MES), pentetrazol
as §3

[3] = Thiosemicarbazide (TSC) anticonvulsant test; format: in vivo, mice (male albino, NMR-1 strain); conditions: Mus musculus, ip, 10 min, mice, abolition of tonic components, for compound 1 TSC given 10 min postdosing
Protocol: as §1, §2, §3

[4] = Accelerating rotarod ataxia test; format: in vivo, mice (male albino, NMR-1 strain)
Protocol: as §1
In a rotarod test, separate groups of mice were trained to stay on an accelerating rotarod that rotated initially at 2.16 rpm, then increased in speed to reach 22.5 rpm in 4 min. The drum diameter was 2.8 cm. Trained animals were dosed with the test compound or drug vehicle and were tested at the time of peak drug effect to measure the effects of the drug on motor performance. The dose at which 50% of the animals fell off the rotarod (TD50 value) was determined by probit analysis.
^b) Accelerating rotarod.

[5] = Strychnine (STR) anticonvulsant test; format: in vivo, mice (male albino, NMR-1 strain); conditions: for ED50: Mus musculus, ip, read-out: ED50 STR
Protocol: as §1, §2
(§4) strychnine (STR) and picrotoxin (PIC).

[6] = Maximal electroshock test (MES); format: in vivo, mice (male albino, NMR-1 strain); conditions: Mus musculus, ip, mice, at time of peak drug effect; 95% confidence interval
Protocol: as §1, §2
In a maximal electroshock test, maximal seizures were induced by application of an electrical current across the brain via carclip electrodes. The stimulus parameters for mice were 30-35 mA, A.C. in pulses of 60 Hz for 200 ms. Each compound was tested at the time of peak drug effect. The dose at which the hind limb tonic seizure was blocked in 50% of the animals (ED50 value) was determined by probit analysis.
as §3

[7] = Bicuculline (BIC) anticonvulsant test; format: in vivo, mice (male albino, NMR-1 strain); conditions: Mus musculus, ip, mice; BIC s.c.; abolition of tonic components
Protocol: as §1, §2, §3

[8] = Picrotoxin (PIC) anticonvulsant test; format: in vivo, mice (male albino, NMR-1 strain)
Protocol: as §1, §2, §4

[9] = Convulsant dose inducing seizures in 97% of mice (CD97); format: in vivo, mice (male albino, NMR-1 strain)
Protocol: as §1

[10] = Preliminary test against convulsions provoked by pentylenetetrazol; format: in vivo; conditions: 100 mg kg^-1, i.p.
Source text: Phenyl alcohol amide derivatives of the foregoing compounds wherein n=0 to 2 may be synthesized by substitution of the ethyl group at the center of chirality by either a methyl or phenyl group. […] Substitution of ethyl by phenyl in the n=0 and n=1 produces a loss in anticonvulsant activity.

[11] = constant speed rotarod; data obtained from NIH, ADD program; cited from earlier work
[12] = patients having grand mal seizures; cited from earlier work
[13] = in vivo; cited from earlier work
[14] = cats; cited from earlier work
[15] = data obtained from NIH, ADD program; cited from earlier work
[16] = data obtained from NIH, ADD program; cited from earlier work; remark: listed apart in the source
[17] = mice; cited from earlier work
[18] = administered i.p. (4-AP, TSC, STR)

CCC(O)(C(N)=O)c1ccccc1 (racemic) [Compound 1, (±)-2-hydroxy-2-phenylbutyramide]
ED50 [1]: 24 mg/kg | solubility (insoluble in) (Solubility): insoluble in cold benzene or water | solubility (soluble in) (Solubility): soluble in ethyl alcohol, chloroform and hot benzene | ED50 [2]: 67 mg/kg | ED50 [3]: 47 mg/kg | TD50 rotarod ataxia ([4]; accelerating rotarod, i.p., mice, compound 2 tested 30 min postdosing): 132 mg/kg | ED50 [5]: 56 mg/kg | strychnine activity relative to the n=2 compound ([5]; comparison in words): more than twice that of the n=2 compound | ED50 [6]: 126 mg/kg | ED50 [7]: 29 mg/kg | PIC effect ([8]; at 80 mgkg^-1): No effects

O=C1C[C@@H]2OCC=C3CN4CC[C@]56c7ccccc7N1[C@H]5[C@H]2[C@H]3C[C@H]46 [strychnine]
CD97 [9, 18]: 2.0 mg/kg

CC(O)(CCC(N)=O)c1ccccc1 (stereo not drawn) [n=2 derivative]
anticonvulsant activity against pentylenetetrazol convulsions [10]: conserves half-potency

CC(O)(CC(N)=O)c1ccccc1 (stereo not drawn) [methyl group in the n=1 compound]
anticonvulsant activity against pentylenetetrazol convulsions [10]: suppresses anticonvulsant activity

CC(O)(C(N)=O)c1ccccc1 (stereo not drawn) [n=0 derivative]
anticonvulsant activity against pentylenetetrazol convulsions [10]: retains activity

CN1CCc2cc3c(cc2[C@H]1[C@@H]1OC(=O)c2c1ccc1c2OCO1)OCO3 [bicuculline]
CD97 ([9]; administered s.c. (PTZ, BIC)): 3.3 mg/kg

CCC(O)(CCC(N)=O)c1ccccc1 (racemic) [Compound 3, (±)-4-hydroxy-4-phenylhexanamide]
ED50 [1]: 29 mg/kg | TD50 rotarod ataxia [11]: 168 mg/kg | clinical antiepileptic action [12]: potent clinical antiepileptic action | profile of anticonvulsant activity [13]: broad profile of anticonvulsant activity | protection against hippocampal kindling [14]: protects | ED50 [2]: 63 mg/kg | ED50 [3]: 73 mg/kg | ED50 MES [15]: 147 mg/kg | TD50 ([4]; rotarod ataxia test): 111 | ED50 [5]: 106 mg/kg | ED50 PTZ [16]: 58 mg/kg | ED50 [6]: 148 mg/kg | ED50 [7]: 30 mg/kg | protection against seizures provoked by bicuculline [17]: protects mice against seizures | protection against seizures provoked by maximal electroshock [17]: protects mice against seizures | protection against seizures provoked by pentetrazol [17]: protects mice against seizures | PIC effect ([8]; at 120 mgkg^-1): No effects

C1CCc2nnnn2CC1 [pentetrazol]
CD97 ([9]; administered s.c. (PTZ, BIC)): 85 mg/kg

CCC(O)(CC(N)=O)c1ccccc1 (racemic) [Compound 2, (±)-3-hydroxy-3-phenylpentamide]
ED50 [1]: 19 mg/kg | solubility (insoluble in) (Solubility): insoluble in cold water | solubility (soluble in) (Solubility): soluble in ethyl alcohol, benzene and hot water | ED50 [2]: 63 mg/kg | ED50 [3]: 43 mg/kg | neurotoxicity in rotarod ataxia test ([4]; in words): unusually low neurotoxicity | TD50 ([4]; mouse, in vivo, ip, accelerating rotarod, i.p., mice, compound 2 tested 30 min postdosing, read-out: TD50 rotarod ataxia): 214 mg/kg | Maximum protection, STR ([5]; at 100 mgkg^-1, STR administered 15 min postdosing): 30% | ED50 [6]: 144 mg/kg | ED50 [7]: 38 mg/kg | Maximum protection, PIC ([8]; at 130 mgkg^-1, PIC administered 15 min postdosing): 37% | picrotoxin test activity ([8]; dose of 130 mg kg^-1): active

Nc1ccncc1 [4-aminopyridine]
CD97 [9, 18]: 15 mg/kg

NNC(N)=S [thiosemicarbazide]
CD97 [9, 18]: 20 mg/kg
